From patent US20250255883A1, “Compositions and Methods for Treating Aging Hair” (CHL Industries, LLC, priority 2021, published 2025)

Tested on: Normal human keratinocytes (HEKa)
Assay: Real-time quantitative PCR gene expression in normal human keratinocytes treated for 24 hours
Assay type: cell-based
Details: vs. water-treated control

diethyl ester of copper (II) chlorin e6 [DECCE6]
Fold Up- or Down-Regulation 18S (gene 18S (housekeeping), 20 ug/mL): 1.2 Fold
Fold Up- or Down-Regulation AQP3 (gene AQP3, 20 ug/mL): 5.5 Fold
Fold Up- or Down-Regulation AREL1 (gene AREL1, 20 ug/mL): −5.8 Fold
Fold Up- or Down-Regulation ARRDC3 (gene ARRDC3, 20 ug/mL): 1.9 Fold
Fold Up- or Down-Regulation BAMBI (gene BAMBI, 20 ug/mL): 1.3 Fold
Fold Up- or Down-Regulation CCL20 (gene CCL20, 20 ug/mL): 2.6 Fold
Fold Up- or Down-Regulation CDKN1A (gene CDKN1A, 20 ug/mL): −1.4 Fold
Fold Up- or Down-Regulation CSF1 (gene CSF1, 20 ug/mL): 1.1 Fold
Fold Up- or Down-Regulation CSF2 (gene CSF2, 20 ug/mL): −1.1 Fold
Fold Up- or Down-Regulation CXCL1 (gene CXCL1, 20 ug/mL): 2.7 Fold
Fold Up- or Down-Regulation CXCL2 (gene CXCL2, 20 ug/mL): 3.0 Fold
Fold Up- or Down-Regulation CXCL3 (gene CXCL3, 20 ug/mL): −1.1 Fold
Fold Up- or Down-Regulation CXCL8 (gene CXCL8, 20 ug/mL): 1.3 Fold
Fold Up- or Down-Regulation CXCL10 (gene CXCL10, 20 ug/mL): 7.6 Fold
Fold Up- or Down-Regulation CYB561 (gene CYB561, 20 ug/mL): −1.2 Fold
Fold Up- or Down-Regulation CYP1A1 (gene CYP1A1, 20 ug/mL): 2.8 Fold
Fold Up- or Down-Regulation DDX5 (gene DDX5, 20 ug/mL): 2.1 Fold
Fold Up- or Down-Regulation DEFB1 (gene DEFB1, 20 ug/mL): 3.4 Fold
Fold Up- or Down-Regulation EPGN (gene EPGN, 20 ug/mL): 1.2 Fold
Fold Up- or Down-Regulation FGF2 (gene FGF2, 20 ug/mL): −2.1 Fold
Fold Up- or Down-Regulation FOS (gene FOS, 20 ug/mL): 15.9 Fold
Fold Up- or Down-Regulation G2E3 (gene G2E3, 20 ug/mL): 4.1 Fold
Fold Up- or Down-Regulation GDF15 (gene GDF15, 20 ug/mL): 1.7 Fold
Fold Up- or Down-Regulation GPADH (gene GPADH (housekeeping), 20 ug/mL): −1.9 Fold
Fold Up- or Down-Regulation GPX2 (gene GPX2, 20 ug/mL): 5.5 Fold
Fold Up- or Down-Regulation HBEGF (gene HBEGF, 20 ug/mL): 3.1 Fold
Fold Up- or Down-Regulation HECTD1 (gene HECTD1, 20 ug/mL): 1.2 Fold
Fold Up- or Down-Regulation HERC1 (gene HERC1, 20 ug/mL): 3.5 Fold
Fold Up- or Down-Regulation HIF1AN (gene HIF1AN, 20 ug/mL): −1.6 Fold
Fold Up- or Down-Regulation HPRT1 (gene HPRT1 (housekeeping), 20 ug/mL): 1.6 Fold
Fold Up- or Down-Regulation HSP90B1 (gene HSP90B1, 20 ug/mL): 1.2 Fold
Fold Up- or Down-Regulation IFI44L (gene IFI44L, 20 ug/mL): 3.9 Fold
Fold Up- or Down-Regulation JUN (gene JUN, 20 ug/mL): 3.3 Fold
Fold Up- or Down-Regulation JUNB (gene JUNB, 20 ug/mL): 1.6 Fold
Fold Up- or Down-Regulation LTB4R (gene LTB4R, 20 ug/mL): −1.3 Fold
Fold Up- or Down-Regulation MAFF (gene MAFF, 20 ug/mL): −1.1 Fold
Fold Up- or Down-Regulation MAP1LC3B (gene MAP1LC3B, 20 ug/mL): 1.2 Fold
Fold Up- or Down-Regulation MAPK14 (gene MAPK14, 20 ug/mL): −1.7 Fold
Fold Up- or Down-Regulation MGAT1 (gene MGAT1, 20 ug/mL): −1.0 Fold
Fold Up- or Down-Regulation MGAT5 (gene MGAT5, 20 ug/mL): −1.8 Fold
Fold Up- or Down-Regulation MOGS (gene MOGS, 20 ug/mL): −2.8 Fold
Fold Up- or Down-Regulation N4BP1 (gene N4BP1, 20 ug/mL): 1.7 Fold
Fold Up- or Down-Regulation NFKBIA (gene NFKBIA, 20 ug/mL): 4.6 Fold
Fold Up- or Down-Regulation PELI1 (gene PELI1, 20 ug/mL): −1.5 Fold
Fold Up- or Down-Regulation PLAUR (gene PLAUR, 20 ug/mL): 2.1 Fold
Fold Up- or Down-Regulation PPP1R15A (gene PPP1R15A, 20 ug/mL): 3.2 Fold
Fold Up- or Down-Regulation PTGFRN (gene PTGFRN, 20 ug/mL): −4.6 Fold
Fold Up- or Down-Regulation PTGS2 (gene PTGS2, 20 ug/mL): −1.1 Fold
Fold Up- or Down-Regulation PTX3 (gene PTX3, 20 ug/mL): 1.1 Fold
Fold Up- or Down-Regulation REL (gene REL, 20 ug/mL): 1.6 Fold
Fold Up- or Down-Regulation RSAD2 (gene RSAD2, 20 ug/mL): 1.9 Fold
Fold Up- or Down-Regulation SAMD9L (gene SAMD9L, 20 ug/mL): 1.3 Fold
Fold Up- or Down-Regulation SOD2 (gene SOD2, 20 ug/mL): 1.2 Fold
Fold Up- or Down-Regulation SPRR2B (gene SPRR2B, 20 ug/mL): 2.4 Fold
Fold Up- or Down-Regulation TGFB1 (gene TGFB1, 20 ug/mL): −1.9 Fold
Fold Up- or Down-Regulation TNF (gene TNF, 20 ug/mL): 16.4 Fold
Fold Up- or Down-Regulation TNFAIP3 (gene TNFAIP3, 20 ug/mL): 2.4 Fold
Fold Up- or Down-Regulation UBE2S (gene UBE2S, 20 ug/mL): 2.2 Fold
Fold Up- or Down-Regulation UBE3B (gene UBE3B, 20 ug/mL): 1.2 Fold
Fold Up- or Down-Regulation UBE4B (gene UBE4B, 20 ug/mL): 1.2 Fold
Fold Up- or Down-Regulation UBE20 (gene UBE20, 20 ug/mL): 1.8 Fold
Fold Up- or Down-Regulation VCP (gene VCP, 20 ug/mL): −2.0 Fold
Fold Up- or Down-Regulation VEGFA (gene VEGFA, 20 ug/mL): 1.5 Fold
